One series deals with T1, Hexokinase-4 (Homo sapiens, UniProt P35557).
T1 sequence (P35557 whole entry): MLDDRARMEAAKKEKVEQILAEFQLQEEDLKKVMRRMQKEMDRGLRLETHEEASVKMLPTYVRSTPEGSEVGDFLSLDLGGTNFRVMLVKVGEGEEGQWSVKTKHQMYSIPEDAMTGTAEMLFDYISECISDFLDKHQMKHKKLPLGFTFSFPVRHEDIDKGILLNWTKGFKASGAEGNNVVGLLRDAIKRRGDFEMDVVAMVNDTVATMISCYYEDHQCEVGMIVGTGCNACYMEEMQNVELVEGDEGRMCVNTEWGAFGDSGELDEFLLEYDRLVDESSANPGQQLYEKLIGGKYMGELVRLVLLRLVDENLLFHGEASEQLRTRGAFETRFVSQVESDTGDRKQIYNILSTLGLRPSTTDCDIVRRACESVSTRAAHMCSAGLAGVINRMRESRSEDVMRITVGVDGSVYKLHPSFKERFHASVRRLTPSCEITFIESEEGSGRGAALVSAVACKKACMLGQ
Nature of the series: Inhibition of fluorescein-labeled human GK interaction with biotin-labeled human GKRP compound incubated for 20 mins prior to addition of fluorescein-labeled GK measured after 2 to 4 hrs by AlphaScreen assay. A general note: In Alpha technology, singlet oxygen from a donor bead excites a nearby acceptor bead.

Series [1] in a line: Intrinsic clearance in human liver microsomes at 1 uM after 30 mins in presence of NADPH. The class given is ADME. Particulars: read-out: CLH.
A short description of series [2]: Intrinsic clearance in rat liver microsomes at 1 uM after 30 mins in presence of NADPH. In kind it is ADME. Particulars: read-out: CLH. On the technique in general: Liver microsomes are vesicles of endoplasmic reticulum, rich in cytochrome P450 enzymes.
A short description of series [3]: Clearance in Sprague-Dawley rat at 2 mg/kg, iv. The class given is ADME, organism-based. Also noted: dose 2 mg/kg, route intravenous. As to conditions: in vivo.
Series [4] is described as follows: Volume of distribution at steady state in Sprague-Dawley rat at 2 mg/kg, iv. In kind it is ADME, organism-based. More on the design: dose 2 mg/kg, route intravenous. Particulars: in vivo, read-out: Vdss.
Series [5] can be described thus: Mean residence time in Sprague-Dawley rat at 2 mg/kg, iv. Also noted: dose 2 mg/kg, route intravenous. The class given is ADME, organism-based. As to conditions: in vivo.
Series [6] can be described thus: Oral bioavailability in Sprague-Dawley rat at 10 mg/kg. The class given is ADME, organism-based. As to conditions: in vivo.
Series [7] is described as follows: AUC in Sprague-Dawley rat at 10 mg/kg, po. As to conditions: plasma. More on the design: dose 10 mg/kg, route oral. The class given is ADME, organism-based.
Series [8] in a line: Fraction unbound in Sprague-Dawley rat plasma. In kind it is ADME, cell-free.
The target of a further series is Cytochrome P450 3A4 (Homo sapiens, UniProt P08684). Nature of the series: Inhibition of CYP3A4 (unknown origin). In kind it is ADME.
For a further series, the target named is Cytochrome P450 2D6 (Homo sapiens, UniProt P10635). Nature of the series: Inhibition of CYP2D6 (unknown origin). In kind it is ADME.
The test system of the next series is Mus musculus. The experiment in a line: Antidiabetic activity in insulin-resistant db/db mouse assessed as reduction of fed blood glucose level at 10 to 100 mg/kg, po measured at 6 hrs relative to vehicle-treated control. The class given is functional. Also noted: scale not given: the % may be the effect or the level left. As to conditions: dose mg/kg 10-100.

The IC50 is the midpoint of a concentration-inhibition curve. One may read the clearance as the rate of elimination divided by the concentration. Broadly, the MRT is a mean duration of stay, worked out from the concentration-time curve. The term bioavailability denotes the share of a dose that reaches the circulation, judged against a reference dose that is usually intravenous. What is called AUC is the area under the concentration-time curve, a measure of exposure. As usually defined, the fraction unbound is free concentration divided by total concentration.

Chain of Cytochrome P450 3A4 (P08684 whole entry): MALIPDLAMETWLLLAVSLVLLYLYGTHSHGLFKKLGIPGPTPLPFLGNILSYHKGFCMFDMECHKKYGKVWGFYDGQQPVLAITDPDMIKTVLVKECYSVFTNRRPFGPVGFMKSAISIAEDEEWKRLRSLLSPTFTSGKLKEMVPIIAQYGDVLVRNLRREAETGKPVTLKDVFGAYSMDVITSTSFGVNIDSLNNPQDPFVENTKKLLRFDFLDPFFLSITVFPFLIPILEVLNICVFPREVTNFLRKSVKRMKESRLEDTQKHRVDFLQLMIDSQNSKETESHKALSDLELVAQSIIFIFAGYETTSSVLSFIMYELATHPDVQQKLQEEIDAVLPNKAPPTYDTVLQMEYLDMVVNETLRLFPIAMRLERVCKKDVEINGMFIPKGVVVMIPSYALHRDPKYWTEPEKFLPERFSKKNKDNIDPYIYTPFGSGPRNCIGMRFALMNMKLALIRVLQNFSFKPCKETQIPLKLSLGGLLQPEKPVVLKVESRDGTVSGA
Chain of Cytochrome P450 2D6 (P10635 whole entry): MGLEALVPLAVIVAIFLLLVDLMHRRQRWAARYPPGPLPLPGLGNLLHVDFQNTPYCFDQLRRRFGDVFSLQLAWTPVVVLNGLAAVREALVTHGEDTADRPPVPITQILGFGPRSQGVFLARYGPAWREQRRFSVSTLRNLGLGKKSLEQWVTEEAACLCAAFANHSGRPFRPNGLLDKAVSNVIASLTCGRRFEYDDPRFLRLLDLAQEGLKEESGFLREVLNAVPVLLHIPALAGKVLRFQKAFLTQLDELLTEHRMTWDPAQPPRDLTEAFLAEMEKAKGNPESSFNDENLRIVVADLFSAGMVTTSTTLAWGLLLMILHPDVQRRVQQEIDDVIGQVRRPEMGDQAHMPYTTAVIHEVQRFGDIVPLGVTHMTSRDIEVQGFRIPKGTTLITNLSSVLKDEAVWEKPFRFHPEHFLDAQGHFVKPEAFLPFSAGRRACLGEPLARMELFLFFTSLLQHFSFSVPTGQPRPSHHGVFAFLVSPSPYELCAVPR

In the case of `Cn1cc(-c2cc(C(O)(C(F)(F)F)C(F)(F)F)cnc2N2CCN(S(=O)(=O)c3ccc(N)nc3)CC2)cn1`, the half-maximal inhibitory concentration (IC50) at Hexokinase-4 was 0.001 µM; on Cytochrome P450 3A4, 27 µM; against Cytochrome P450 2D6, 18 µM. In addition, the microsomal CLint at 1 µM in series [1] came out at 19 µL/min/mg; in [2] it was 44 µL/min/mg. In series [3], this compound had a clearance of 2 L/h/kg. Further, the Vd in [4] was 2.57 L/kg. In series [5], this compound registered an MRT of 1.34 h. The compound further had a bioavailability in series [6] of 30%. The compound further returned an AUC in series [7] of 2.8 µM·h. In addition, in series [8], the fraction unbound was found to be 0.011.
In turn, `CCn1cc(-c2cc(C(O)(C(F)(F)F)C(F)(F)F)cnc2N2CCN(S(=O)(=O)c3ccc(N)nc3)CC2)cn1` displayed an IC50 against Hexokinase-4 of 0.005 µM. In addition, the microsomal CLint at 1 µM stood at 20 µL/min/mg in [1] and 194 µL/min/mg in series [2].
With `CC(C)n1cc(-c2cc(C(O)(C(F)(F)F)C(F)(F)F)cnc2N2CCN(S(=O)(=O)c3ccc(N)nc3)CC2)cn1`, the IC50 against Hexokinase-4 is 0.023 µM. The microsomal CLint at 1 µM came out at 38 µL/min/mg in [1] and 198 µL/min/mg in [2].
The matching figures for `CC(C)(C)n1cc(-c2cc(C(O)(C(F)(F)F)C(F)(F)F)cnc2N2CCN(S(=O)(=O)c3ccc(N)nc3)CC2)cn1`: 0.087 µM, 86 µL/min/mg and 459 µL/min/mg.
The matching figures for `Cc1c(-c2cc(C(O)(C(F)(F)F)C(F)(F)F)cnc2N2CCN(S(=O)(=O)c3ccc(N)nc3)CC2)cnn1C`: 0.04 µM, 28 µL/min/mg and 88 µL/min/mg.
As for `Nc1ccc(S(=O)(=O)N2CCN(c3ncc(C(O)(C(F)(F)F)C(F)(F)F)cc3-c3cccnc3)CC2)cn1`, the half-inhibitory concentration (IC50) on Hexokinase-4 was determined as 0.005 µM; on Cytochrome P450 3A4 it was 27 µM; at Cytochrome P450 2D6 it was 27 µM. Further, the microsomal CLint at 1 µM in series [1] was found to be 17 µL/min/mg; in series [2], 20 µL/min/mg. The compound further showed a clearance in series [3] of 1.5 L/h/kg. The Vd in series [4] is 3.36 L/kg. Moreover, the mean residence time (MRT) in [5] was 2.18 h. This compound gave a bioavailability in series [6] of 43%. Further, in series [7], the area under the curve (AUC) stood at 4.74 µM·h. Further, in [8], the fraction unbound amounted to 0.021. Moreover, the Activity with Mus musculus was determined as 25%.

The record behind these values is ChEMBL document CHEMBL3352455, “Small molecule disruptors of the glucokinase-glucokinase regulatory protein interaction: 4. Exploration of a novel binding pocket” (J Med Chem, 2014).
